Source: patent US9758526B2, “Quinoline-substituted compound” (TAIHO PHARMACEUTICAL CO., LTD., priority 2013, dated 2017)

What was measured:
EGFR (T790M/L858R) = target: T1, EGFR (T790M/L858R) (Homo sapiens, UniProt P00533, L858R/T790M); assay: EGFR (T790M/L858R) kinase inhibitory activity; assay type: biochemical; details: ATP 1 μM, 25° C. for 120 minutes
T1 construct: purchased Carna Biosciences, Inc
Protocol: The inhibitory activities of the compounds of the present invention against EGFR (T790M/L858R) kinase activity were measured.
(§1) Among the materials of the inhibitory activity measurement, the substrate peptide and the kinase protein were obtained as follows. A peptide with biotinylated N-terminus (biotin-EEPLYWSFPAKKK) was synthesized with reference to FL-Peptide 22, a reagent for LabChip® series of PerkinElmer, Inc. For the kinase protein, a purified recombinant human EGFR (T790M/L858R) protein of Carna Biosciences, Inc. was purchased.
(§2) The inhibitory activity measurement was performed as follows. The compounds of the present invention were individually dissolved in dimethyl sulfoxide (DMSO), and serial dilutions of these compounds were prepared using DMSO. Subsequently, a solution containing the substrate peptide (final concentration: 250 nM), magnesium chloride (final concentration: 10 mM), manganese chloride (final concentration: 10 mM), and ATP (final concentration: 1 μM) in a buffer solution for kinase reaction (Carna Biosciences, Inc.) was mixed with the dilutions of the compounds (final concentration of DMSO upon kinase reaction: 2.5%) or DMSO (final concentration: 2.5%). EGFR (T790M/L858R) protein was further added thereto, and the mixtures were incubated at 25° C. for 120 minutes to carry out a kinase reaction. EDTA was added thereto to a final concentration of 24 mM to thereby terminate the reaction. A phosphorylated thyrosine detection solution containing europium (Eu)-labeled anti-phosphorylated tyrosine antibody PT66 (PerkinElmer, Inc.) and SureLight APC-SA (PerkinElmer, Inc.) was added to the reaction mixtures, and the mixtures were allowed to stand at room temperature for 2 hours or more. For the background, a sample to which EDTA was added before addition of EGFR (T790M/L858R) protein was incubated at 25° C. for 120 minutes, using DMSO instead of the DMSO solution of the compound. The detection solution was also added to this sample, and the mixture was allowed to stand for 2 hours or more. Finally, for all of the test samples, the amount of fluorescence at the time of irradiation of excitation light having a wavelength of 337 nm was measured at dual wavelengths of 620 nm and 665 nm by PHERAstar FS (BMG LABTECH), and a ratio of the fluorescence amounts at the two wavelengths was obtained as data.
(§3) Based on the above rates, phosphorylation inhibition rates (%) were calculated for the samples to which various concentrations of the compound solutions were added. Finally, the obtained reaction inhibition rates (%) at the respective concentrations were plotted for each compound, and the IC50 value (nM), which is a compound concentration at which phosphorylation by EGFR (T790M/L858R) is inhibited by 50%, was determined using XLfit curve-fitting software (IDBS).

EGFR (d746-750/T790M) = target: T2, EGFR (d746-750/T790M) (Homo sapiens, UniProt P00533, DEL746-750/T790M); assay: EGFR (d746-750/T790M) kinase inhibitory activity; assay type: biochemical; details: ATP 1.5 μM
T2 construct: purchased Carna Biosciences, Inc
T2 sequence (P00533 with tags, fused parts or gaps DEL746-750/T790M limits assumed): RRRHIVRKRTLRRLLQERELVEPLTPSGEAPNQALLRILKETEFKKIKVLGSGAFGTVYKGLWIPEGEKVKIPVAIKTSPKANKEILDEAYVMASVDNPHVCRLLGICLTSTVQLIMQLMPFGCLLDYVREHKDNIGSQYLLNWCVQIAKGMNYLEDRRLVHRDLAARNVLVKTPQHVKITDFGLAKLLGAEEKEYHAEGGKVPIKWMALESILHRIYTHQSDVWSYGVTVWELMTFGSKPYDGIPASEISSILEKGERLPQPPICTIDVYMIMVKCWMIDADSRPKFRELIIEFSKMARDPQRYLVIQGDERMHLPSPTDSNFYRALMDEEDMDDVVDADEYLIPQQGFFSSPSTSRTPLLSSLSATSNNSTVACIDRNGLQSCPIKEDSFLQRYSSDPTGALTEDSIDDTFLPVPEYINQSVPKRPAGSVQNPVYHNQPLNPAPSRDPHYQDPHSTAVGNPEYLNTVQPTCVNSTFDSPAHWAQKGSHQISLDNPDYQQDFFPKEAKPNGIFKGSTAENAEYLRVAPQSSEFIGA
Protocol: as §1, §2, §3
The inhibitory activities of the compounds of the present invention against EGFR (d746-750/T790M) kinase activity were measured.
The materials, the measurement method, and the data analysis method were substantially the same as those shown in the above description regarding “Measurement of EGFR (T790M/L858R) Kinase Inhibitory Activity,” except that a purified recombinant human EGFR (d746-750/T790M) protein purchased from Carna Biosciences, Inc. was used as the kinase protein, and the measurement was performed with an ATP final concentration of 1.5 μM. Finally, the IC50 value (nM) of each compound with respect to EGFR (d746-750/T790M) was determined by data analysis.

EGFR (L858R) = target: T3, EGFR (L858R) (Homo sapiens, UniProt P00533, L858R); assay: EGFR (L858R) kinase inhibitory activity; assay type: biochemical; details: ATP 4 μM
T3 construct: purchased Carna Biosciences, Inc
T3 sequence (P00533 25-1210 L858R): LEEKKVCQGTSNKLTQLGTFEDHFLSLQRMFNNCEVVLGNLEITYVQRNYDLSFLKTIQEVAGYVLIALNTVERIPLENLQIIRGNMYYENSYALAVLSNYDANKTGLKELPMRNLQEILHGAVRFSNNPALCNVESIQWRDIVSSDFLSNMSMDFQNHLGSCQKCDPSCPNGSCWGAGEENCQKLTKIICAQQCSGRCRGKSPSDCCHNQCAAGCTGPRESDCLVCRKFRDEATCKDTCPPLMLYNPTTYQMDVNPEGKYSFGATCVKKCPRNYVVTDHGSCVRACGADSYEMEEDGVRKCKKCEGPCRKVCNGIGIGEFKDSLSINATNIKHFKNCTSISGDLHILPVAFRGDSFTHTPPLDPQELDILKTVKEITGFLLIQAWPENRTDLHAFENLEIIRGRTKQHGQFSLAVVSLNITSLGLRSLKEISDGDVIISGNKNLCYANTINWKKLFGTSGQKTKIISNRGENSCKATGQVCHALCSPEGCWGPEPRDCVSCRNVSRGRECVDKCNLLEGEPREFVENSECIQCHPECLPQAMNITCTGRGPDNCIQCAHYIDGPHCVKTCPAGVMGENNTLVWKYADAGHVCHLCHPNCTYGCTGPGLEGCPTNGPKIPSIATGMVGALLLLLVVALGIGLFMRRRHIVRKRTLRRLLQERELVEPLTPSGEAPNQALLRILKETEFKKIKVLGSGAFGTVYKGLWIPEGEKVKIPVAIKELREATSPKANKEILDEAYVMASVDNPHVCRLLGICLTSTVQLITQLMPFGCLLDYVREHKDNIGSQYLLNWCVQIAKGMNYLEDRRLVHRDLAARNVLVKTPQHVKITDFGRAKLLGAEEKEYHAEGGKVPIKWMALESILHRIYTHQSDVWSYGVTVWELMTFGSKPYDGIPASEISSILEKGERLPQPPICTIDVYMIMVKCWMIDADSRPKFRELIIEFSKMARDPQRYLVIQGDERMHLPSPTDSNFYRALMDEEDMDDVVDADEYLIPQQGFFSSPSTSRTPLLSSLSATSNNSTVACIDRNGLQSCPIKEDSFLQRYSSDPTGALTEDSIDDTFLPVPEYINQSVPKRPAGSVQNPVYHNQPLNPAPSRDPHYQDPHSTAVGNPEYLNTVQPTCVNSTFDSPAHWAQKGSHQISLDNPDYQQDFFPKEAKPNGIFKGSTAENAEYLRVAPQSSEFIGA
Protocol: as §1, §2, §3
The inhibitory activities of the compounds of the present invention against EGFR (L858R) kinase activity were measured.
The materials, the measurement method, and the data analysis method were substantially the same as those shown in the above description regarding “Measurement of EGFR (T790M/L858R) Kinase Inhibitory Activity,” except that a purified recombinant human EGFR (L858R) protein purchased from Carna Biosciences, Inc. was used as the kinase protein, and the measurement was performed with ATP at a final concentration of 4 μM. Finally, the IC50 value (nM) of each compound with respect to EGFR (L858R) was determined by data analysis.

EGFR (d746-750) = target: T4, EGFR (d746-750) (Homo sapiens, UniProt P00533, DEL746-750); assay: EGFR (d746-750) kinase inhibitory activity; assay type: biochemical; details: ATP 5 μM, kinase reaction 90 minutes
T4 construct: purchased Carna Biosciences, Inc
T4 sequence (P00533 with tags, fused parts or gaps DEL746-750 limits assumed): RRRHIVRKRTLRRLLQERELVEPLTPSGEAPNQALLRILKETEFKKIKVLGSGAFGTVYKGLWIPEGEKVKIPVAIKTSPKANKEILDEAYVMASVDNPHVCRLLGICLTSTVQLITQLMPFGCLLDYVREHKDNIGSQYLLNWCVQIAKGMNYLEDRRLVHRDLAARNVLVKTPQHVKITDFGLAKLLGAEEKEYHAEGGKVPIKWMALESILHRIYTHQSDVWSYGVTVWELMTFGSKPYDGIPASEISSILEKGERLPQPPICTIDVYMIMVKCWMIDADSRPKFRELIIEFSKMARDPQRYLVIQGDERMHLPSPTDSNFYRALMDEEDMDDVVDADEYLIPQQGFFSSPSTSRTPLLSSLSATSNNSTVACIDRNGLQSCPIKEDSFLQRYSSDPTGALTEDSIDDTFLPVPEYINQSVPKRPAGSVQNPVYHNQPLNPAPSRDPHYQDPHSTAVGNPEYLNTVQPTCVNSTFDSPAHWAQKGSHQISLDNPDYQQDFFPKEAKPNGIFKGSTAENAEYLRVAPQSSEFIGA
Protocol: as §1, §2, §3
The inhibitory activities of the compounds of the present invention against EGFR (d746-750) kinase activity were measured.
The materials, the measurement method, and the data analysis method were substantially the same as those shown in the above description regarding “Measurement of EGFR (T790M/L858R) Kinase Inhibitory Activity,” except that a purified recombinant human EGFR (d746-750) protein purchased from Carna Biosciences, Inc. was used as the kinase protein, the measurement was performed with ATP at a final concentration of 5 μM, and the incubation for the kinase reaction was performed for 90 minutes. Finally, the IC50 value (nM) of each compound with respect to EGFR (d746-750) was determined by data analysis.

EGFR (WT) = target: T5, EGFR (WT) (Homo sapiens, UniProt P00533); assay: EGFR (WT) kinase inhibitory activity; assay type: biochemical; details: substrate peptide 500 nM
T5 construct: expressing a cytoplasmic domain of human EGFR (WT) with its N-terminus fused to a FLAG tag; FLAG (N); made in house; host or cells: insect Sf9 cells, baculovirus expression system
T5 sequence (P00533 669-1210 limits assumed): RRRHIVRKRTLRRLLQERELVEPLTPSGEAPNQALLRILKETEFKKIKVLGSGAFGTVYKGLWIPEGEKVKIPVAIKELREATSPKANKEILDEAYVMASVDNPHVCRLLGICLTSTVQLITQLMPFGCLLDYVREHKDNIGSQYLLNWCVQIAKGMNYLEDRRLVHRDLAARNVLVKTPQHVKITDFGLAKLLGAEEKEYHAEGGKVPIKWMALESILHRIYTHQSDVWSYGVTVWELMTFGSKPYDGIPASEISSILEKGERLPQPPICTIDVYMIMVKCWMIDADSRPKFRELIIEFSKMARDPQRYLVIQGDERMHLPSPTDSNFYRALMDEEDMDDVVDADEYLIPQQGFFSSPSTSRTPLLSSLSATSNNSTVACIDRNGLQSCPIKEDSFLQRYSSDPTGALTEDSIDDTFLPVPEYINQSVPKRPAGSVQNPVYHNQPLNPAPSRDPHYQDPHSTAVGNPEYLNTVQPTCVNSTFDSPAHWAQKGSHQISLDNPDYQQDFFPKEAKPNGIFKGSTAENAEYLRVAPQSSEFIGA
Protocol: as §1, §2, §3
The inhibitory activities of the compounds of the present invention against EGFR (WT) kinase activity were measured.
The materials, the measurement method, and the data analysis method were substantially the same as those shown in the above description regarding “Measurement of EGFR (T790M/L858R) Kinase Inhibitory Activity,” except that a kinase protein prepared by expressing a cytoplasmic domain of human EGFR (WT) with its N-terminus fused to a FLAG tag in insect Sf9 cells using a baculovirus expression system and then purifying it with anti-FLAG antibody agarose (Sigma-Aldrich) was used as the kinase protein, the final concentration of the substrate peptide was 500 nM, and the final concentration of ATP was […]. Finally, the IC50 value (nM) of each compound with respect to EGFR (WT) was determined by data analysis.

[1] = tested on: NCI-H1975 expressing EGFR (T790M/L858R); assay: Growth inhibition, NCI-H1975 expressing EGFR (T790M/L858R); assay type: cell-based; details: Homo sapiens, NCI-H1975, 72 h; cultured three days, CellTiter-Glo
Protocol: (§4) (1) A human […] lung cancer cell line NCI-H1975 expressing EGFR (T790M/L858R), (2) a human non-small cell lung cancer cell line HCC827 expressing EGFR (d746-750), and (3) a human epithelioid cancer cell line A431 expressing EGFR (WT) were each suspended in complete growth medium recommended by ATCC. The cell suspensions were seeded in each well of a 384-well flat microplate or a 96-well flat plate, and cultured in an incubator containing 5% carbon dioxide gas at 37° C. for one day. Each compound of the present invention was dissolved in DMSO, and serial dilutions of the test compound were prepared using DMSO (to a concentration 500 times the final concentration). The DMSO solution of the test compound or DMSO was diluted with complete growth medium, and the resulting solution was added to each well of the cell culture plate so that the final concentration of DMSO was 0.2%. Then, the cells were cultured in an incubator containing 5% carbon dioxide gas at 37° C. for three days. The number of cells was measured before the addition of the DMSO solution of the test compound, as well as after addition and culture by using a CellTiter-Glo Assay® (produced by Promega) according to a protocol recommended by Promega.
(§5) For each cell, the cell growth inhibition rates of the wells to which the test compounds at various concentrations were added were calculated by the following formula. Then, the obtained inhibition rates (%) at the respective concentrations were plotted for each test compound, and the GI50 value (nM), which is a test compound concentration at which the cell growth can be inhibited by 50%, was determined using XLfit curve-fitting software (IDBS). • Cell Growth Inhibition Rate (%)=(C−T)/(C−CO)×100 • T: Luminescence intensity of well cultured for three days after addition of the test compound solution • C: Luminescence intensity of well cultured for three days after addition of DMSO • C0: Luminescence intensity of well before addition of the test compound solution

[2] = tested on: HCC827 expressing EGFR (d746-750); assay: Growth inhibition, HCC827 expressing EGFR (d746-750); assay type: cell-based; details: Homo sapiens, HCC827, 72 h; cultured three days, CellTiter-Glo
Protocol: as §4, §5

[3] = tested on: A431 expressing EGFR (WT); assay: Growth inhibition, A431 expressing EGFR (WT); assay type: cell-based; details: Homo sapiens, A-431, 72 h; cultured three days, CellTiter-Glo
Protocol: as §4, §5

T1 sequence (P00533 25-1210 T790M/L858R): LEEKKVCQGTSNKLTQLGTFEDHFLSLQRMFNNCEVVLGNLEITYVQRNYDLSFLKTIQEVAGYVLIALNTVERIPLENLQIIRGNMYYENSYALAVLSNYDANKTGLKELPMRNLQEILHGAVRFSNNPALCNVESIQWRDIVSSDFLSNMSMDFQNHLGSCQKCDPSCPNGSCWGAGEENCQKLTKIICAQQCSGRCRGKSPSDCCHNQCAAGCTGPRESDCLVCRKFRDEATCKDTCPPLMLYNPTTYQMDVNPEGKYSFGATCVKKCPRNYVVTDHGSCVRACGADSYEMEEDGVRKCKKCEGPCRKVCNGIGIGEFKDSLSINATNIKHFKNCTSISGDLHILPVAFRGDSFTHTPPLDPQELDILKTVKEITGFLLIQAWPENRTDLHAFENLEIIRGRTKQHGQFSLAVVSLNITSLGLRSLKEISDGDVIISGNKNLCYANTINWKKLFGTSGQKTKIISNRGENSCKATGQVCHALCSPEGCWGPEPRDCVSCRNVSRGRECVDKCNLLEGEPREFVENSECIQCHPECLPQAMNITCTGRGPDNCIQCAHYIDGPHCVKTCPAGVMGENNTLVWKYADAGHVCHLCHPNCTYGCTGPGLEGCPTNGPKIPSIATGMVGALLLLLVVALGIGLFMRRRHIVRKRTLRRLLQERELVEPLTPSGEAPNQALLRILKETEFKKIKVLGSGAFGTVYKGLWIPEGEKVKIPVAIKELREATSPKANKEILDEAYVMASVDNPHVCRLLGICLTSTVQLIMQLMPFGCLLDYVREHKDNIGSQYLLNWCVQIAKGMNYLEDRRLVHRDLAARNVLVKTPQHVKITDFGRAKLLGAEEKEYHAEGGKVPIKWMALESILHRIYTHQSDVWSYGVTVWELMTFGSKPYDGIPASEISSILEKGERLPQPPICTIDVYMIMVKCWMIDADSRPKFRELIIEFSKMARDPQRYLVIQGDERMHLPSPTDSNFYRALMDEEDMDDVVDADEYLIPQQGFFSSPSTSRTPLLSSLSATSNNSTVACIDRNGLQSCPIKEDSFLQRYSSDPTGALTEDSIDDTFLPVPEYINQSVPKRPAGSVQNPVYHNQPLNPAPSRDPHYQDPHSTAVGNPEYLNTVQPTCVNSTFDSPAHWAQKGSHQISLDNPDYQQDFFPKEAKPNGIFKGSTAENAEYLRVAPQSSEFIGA

| Structure (SMILES) | IC50 (EGFR (T790M/L858R)) [nM] | IC50 (EGFR (d746-750/T790M)) [nM] | IC50 (EGFR (L858R)) [nM] | IC50 (EGFR (d746-750)) [nM] | IC50 (EGFR (WT)) [nM] | GI50 [1] [nM] | GI50 [2] [nM] | GI50 [3] [µM] |
| --- | --- | --- | --- | --- | --- | --- | --- | --- |
| C=C1c2c(-c3cnc4ccccc4c3)c3c(N)ncnc3n2C[C@H]1NC(=O)/C=C/CN(C)CC [Example 11, (S,E)-N-(4-amino-6-methylene-5-(quinolin-3-yl)-7,8-dihydro-6H-pyrimido[5,4-b]pyrrolizin-7-yl)-4-(ethyl(methyl)amino)but-2-enamide] | 0.76 | 0.32 | 1.4 | 0.88 | 12 | 260 | 9.7 | 3.9 |
| C=C1c2c(-c3cnc4ccccc4c3)c3c(N)ncnc3n2C[C@H]1NC(=O)/C=C/CN(CC)CC [Example 10, (S,E)-N-(4-amino-6-methylene-5-(quinolin-3-yl)-7,8-dihydro-6H-pyrimido[5,4-b]pyrrolizin-7-yl)-4-(diethylamino)but-2-enamide] | 1.5 | 0.61 | 2.6 | 1.8 | 22 | 310 | 8.1 | 4.4 |
| C=CC(=O)N[C@H]1C=C(C)c2c(-c3cnc4ccccc4c3)c3c(N)ncnc3n2C1 [Example 14, (S)—N-(4-amino-6-methyl-5-(quinolin-3-yl)-8,9-dihydropyrimido[5,4-b]indolizin-8-yl)acrylamide] | 0.24 | < 0.5 | 0.32 | 0.19 | 2.9 | 22 | 2.5 | 1.9 |
| C=CC(=O)N[C@@H]1C=C(C)c2c(-c3cnc4ccccc4c3)c3c(N)ncnc3n2C1 [Example 16, (R)—N-(4-amino-6-methyl-5-(quinolin-3-yl)-8,9-dihydropyrimido[5,4-b]indolizin-8-yl)acrylamide] | 11 | 3 | 39 | 15 | 480 | 600 | 27 | > 10 |

Results, then the molecule that gave them:

| IC50 (EGFR (T790M/L858R)) [nM] | IC50 (EGFR (d746-750/T790M)) [nM] | IC50 (EGFR (L858R)) [nM] | IC50 (EGFR (d746-750)) [nM] | IC50 (EGFR (WT)) [nM] | GI50 [1] [nM] | GI50 [2] [nM] | GI50 [3] [µM] | Structure (SMILES) |
| --- | --- | --- | --- | --- | --- | --- | --- | --- |
| 4.7 | 1.3 | 12 | 4.5 | 68 | 160 | 8.9 | 4 | C=CC(=O)N[C@@H]1CCn2c(c(-c3cnc4ccccc4c3)c3c(N)ncnc32)C(=C)C1 [Example 18, (S)—N-(4-amino-6-methylene-5-(quinolin-3-yl)-7,8,9,10-tetrahydro-6H-pyrimido[5′,4′:4,5]pyrrolo[1,2-a]azepin-8-yl)acrylamide] |
| 23 | 11 | 50 | 39 | 580 | 2900 | 160 | > 10 | C=CC(=O)N[C@@H]1CC(=C)c2c(-c3cnc4ccccc4c3)c3c(N)ncnc3n2C1 [Example 17, (R)—N-(4-amino-6-methylene-5-(quinolin-3-yl)-6,7,8,9-tetrahydropyrimido[5,4-b]indolizin-8-yl)acrylamide] |
| 0.44 | 0.3 | 0.63 | 0.29 | 7.3 | 47 | 3.3 | 5.1 | C=CC(=O)N(C)[C@@H]1C=C(C)c2c(-c3cnc4ccccc4c3)c3c(N)ncnc3n2C1 [Example 23, (R)—N-(4-amino-6-methyl-5-(quinolin-3-yl)-8,9-dihydropyrimido[5,4-b]indolizin-8-yl)-N-methylacrylamide] |
| 0.26 | 0.28 | 0.27 | 0.42 | 2.2 | 49 | 5.6 | 0.99 | C=CC(=O)N[C@H]1C/C(=C\C)c2c(-c3cnc4ccccc4c3)c3c(N)ncnc3n2C1 [Example 19, (S,E)-N-(4-amino-6-ethylidene-5-(quinolin-3-yl)-6,7,8,9-tetrahydropyrimido[5,4-b]indolizin-8-yl)acrylamide] |
| 0.83 | 0.31 | 1.1 | 0.85 | 8.6 | 110 | 4.9 | 3.4 | C=CC(=O)N[C@@H]1Cn2c(c(-c3cnc4ccccc4c3)c3c(N)ncnc32)C1C (stereo partly drawn) [Example 24, N-((7S)-4-amino-6-methyl-5-(quinolin-3-yl)-7,8-dihydro-6H-pyrimido[5,4-b]pyrrolizin-7-yl)acrylamide] |
